Source: PubChem BioAssay AID381 (SGCOxCompounds, 2006)

biological target: Aldo-keto reductase family 1 member C4 (Homo sapiens) (UniProt P17516); experiment: AKR1C4 binders by thermal shift, biophysical, DSF, SYPRO orange, with or without NADPH (AID 381); conditions: recombinant AKR1C4, DSF thermal shift, at 10 µM, buffer 10 mM HEPES, NaCl 150 mM, pH 7.5, protein 2 µM, hits give high values
Sequence (P17516 whole entry, looked up): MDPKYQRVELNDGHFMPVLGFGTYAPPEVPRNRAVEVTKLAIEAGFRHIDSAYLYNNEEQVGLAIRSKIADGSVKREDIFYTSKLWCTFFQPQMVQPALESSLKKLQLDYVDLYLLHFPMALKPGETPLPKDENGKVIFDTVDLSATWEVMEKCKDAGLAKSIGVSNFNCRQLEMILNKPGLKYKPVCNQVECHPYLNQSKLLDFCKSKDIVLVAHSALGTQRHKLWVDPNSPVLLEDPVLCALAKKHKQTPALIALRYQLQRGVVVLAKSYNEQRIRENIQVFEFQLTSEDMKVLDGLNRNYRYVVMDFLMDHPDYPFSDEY

SMILES | Tm shift [Celsius]
O=c1cc(-c2ccccc2)oc2cc(O)c(O)c(O)c12 | 3.5

same assay, conditions: recombinant AKR1C4, DSF thermal shift, at 10 µM, buffer 10 mM HEPES, pH 7.5, NaCl 150 mM, NADPH 20 µM, protein 2 µM, hits give high values

SMILES | Tm shift [Celsius]
Oc1cc(Cl)ccc1Oc1ccc(Cl)cc1Cl | 2.3
C[C@]12CC[C@H]3[C@@H](CCC4=CC(=O)CC[C@@]43C)[C@@H]1CC[C@@H]2O | 5.3
CC(=O)[C@H]1CC[C@H]2[C@@H]3CCC4=CC(=O)CC[C@]4(C)[C@H]3CC[C@]12C | 4.5
C[C@]12CC[C@H]3C(=CCc4cc(O)ccc43)[C@@H]1CCC2=O | 4.5

same assay, conditions: recombinant AKR1C4, DSF thermal shift, at 10 µM, buffer 10 mM HEPES, pH 7.5, NaCl 150 mM, protein 2 µM, hits give high values

SMILES | Tm shift [Celsius]
O=c1cc(-c2ccc(O)cc2)oc2cc(O)cc(O)c12 | 2.2
O=c1cc(-c2ccccc2)oc2cc(O)cc(O)c12 | 2.3
CC1(C)[C@@H](O)CC[C@]2(C)[C@H]3C(=O)C=C4[C@H]5C[C@@](C)(C(=O)O)CC[C@]5(C)CC[C@@]4(C)[C@]3(C)CC[C@@H]12 | 5.2
O=C1C(=O)C(c2ccc(O)cc2O)Oc2cc(O)cc(O)c21 (configuration not stated) | 2.1
CC1(C)[C@@H](O)CC[C@]2(C)[C@H]3C(=O)C=C4[C@@H]5C[C@@](C)(C(=O)O)CC[C@]5(C)CC[C@@]4(C)[C@]3(C)CC[C@@H]12 | 5
CC1CC(C)(C)NC(=S)N1CCCC(=O)N1CCN(C(c2ccccc2)c2ccc(Cl)cc2)CC1 (configuration not stated) | 2.4
CC1(C)[C@@H](OC(=O)CCC(=O)O)CC[C@]2(C)[C@H]3C(=O)C=C4[C@@H]5C[C@@](C)(C(=O)O)CC[C@]5(C)CC[C@@]4(C)[C@]3(C)CC[C@@H]12 | 7.3
